Measurements published in patent US11718628B2, “SREBP inhibitors comprising a 6-membered central ring” (Capulus Therapeutics, LLC, priority 2018, dated 2023).
Blank lines part the entries; values can stand above or below the compound they belong to.

Columns and labels:
[1] = test system: SREBP; experiment: Reporter screening assay (SRE-luciferase reporter construct); assay type: cell-based; details: Homo sapiens; SREBPv1 reporter cell line HepG2, 24 hours, 0.01 uM to 10 uM; read-out: Reporter Screening IC50 (nM) Activity Range
Experimental: This assay was used to evaluate the effect on transcriptional activity SREBP of the compounds synthesized according to Examples 1-16, 20, and 22, using an SRE-luciferase reporter construct. On day 1, 10,000 cells were seeded in a 96 well (white) plate as per the plate map in Growth media without antibiotics. Cells were incubated at 37° C. for 8 hours. After 8 hours, cells were washed with DPBS for complete removal of FBS. DPBS was completely removed and Growth media was replaced with phenol free treatment medium (90 μl) with different FBS concentrations. The cells were then incubated at 37° C. for 24 hours with varying doses (0.01 uM to 10 uM) of compounds. Then a Luciferase assay was performed.
Reagents for performing Luciferase assay were stored at −20° C. To a tube of lyophilized assay substrate was added 1 mL Substrate Solvent and mixed well. The Substrate tube after reconstitution was covered with aluminum foil so as to keep it protected from light. The assay buffer was thawed to room temperature. To 20 mL Assay Buffer was added 200 μL of reconstituted 100× Substrate and mixed well. The reconstituted substrate as well as the assay solution (buffer+substrate) was protected from light throughout the procedure by keeping it covered with aluminum foil.
Using a multi-channel pipette, 100 μL Assay Solution (buffer+substrate) was added directly to each sample well in Plate 1, which was incubated for 30 min (plate was covered with aluminum foil). After 30 min incubation, the plate was read for total luminescence. Each well was read for 2 seconds in a plate luminometer. (Microplate reader Envision Microplate reader from Perkin Elmer). Precaution was taken to incubate plate exactly for 30 min prior to reading on the plate reader.
Materials: SREBPv1 Reporter cell line: HepG2—#32251. Growth Medium: MEM (Corning 10-010), 10% FBS, 1% GlutaMax (Invitrogen Catalog #35050061), […] (Invitrogen Catalog #A1113803) and 1% Penicillin-Streptomycin (Pen-Strep). Treatment Media: Phenol-free MEM (Invitrogen Catalog #51200-038) and 1% GlutaMax (Invitrogen Catalog #35050061). Luciferase Assay: LightSwitch Luciferase Assay Kit (Catalog #32032). LDH assay: Pierce LDH Cytotoxicity Assay Kit (Catalog #SD249616).

[2] = Plasma and liver compound levels in mice after oral administration; assay type: in vivo; details: 30 mpk
Experimental: (§1) The pharmacodynamic properties of selected compounds were evaluated in mice. The animals were housed in cages with clean bedding, and maintained and monitored for good health in accordance with Test Facility SOPs and at the discretion of the laboratory animal veterinarian. Certified rodent diet was provided. Food and water was available ad libitum. Environmental controls for the animal room were set to maintain a temperature of 22° C. to 25° C., humidity of 40-70% RH, and a 12-hour light/[…]. Normal healthy animals certified by the attending veterinarian were selected and acclimatized for minimum three days prior to initiation of study. Animals were identified with body markings.
(§2) Aliquots of the compounds being evaluated were weighed and triturated with 0.5% methylcellulose (with the addition of 5% N-methyl pyrrolidone when required to remove clumping, as for Z-806) to an appropriate dose concentration. Vials were labeled with the information about study number, test item, concentration and date of preparation. A description of appearance of formulation was recorded (e.g., color, turbidity, etc.). The composition of formulation vehicle was recorded. An aliquot of each dose solution was taken before the dosing began and after dosing was finished, and stored at approximately −20° C. or below for subsequent analysis. The animals were dosed orally through oral gavage needle, and time of dosing was recorded.
After dosing, the mice were anesthetized using gaseous anesthesia. Blood samples were collected through a capillary, guided in retro-orbital plexus, at 6 h or at 24 h. Approximately 100 uL of blood was collected from each mouse, in pre-labeled tubes. The collected blood was stored on ice prior to centrifugation. Blood samples were then centrifuged within 1 hour of collection to separate plasma. Centrifugation was conducted at 2500×g for 15 minutes at 4° C. The plasma was separated and transferred to pre-labeled micro-centrifuge tubes and promptly frozen at −80±10° C. until bioanalysis.
(§3) Liver Collection at 6 h or 24 h: Immediately after blood withdrawal for pharmacokinetic evaluation (at 6 or at 24 h), liver tissue was collected without perfusion. Animals were euthanized using carbon dioxide gas in a CO2 chamber. The whole blood was drained by cutting the both side jugular vein and abdominal aorta. The liver was separated out. All the liver samples were divided in two parts. The first part (200 mg approx.) was snap frozen using liquid nitrogen as soon as possible. These samples were immediately transferred to −80° C. for storage. The remaining part was weighed and used for bioanalysis.

[3] = In vivo pharmacokinetic properties in mice (IV and PO); parameters: species or system C57BL/6J mice; details: mouse, in vivo
Experimental: (§4) The in vivo pharmacokinetic properties of compounds by both intravenous and oral administration were evaluated in male Sprague Dawley rats or C57BL/6J mice.
(§5) Animals were housed in cages with clean bedding. Certified rodent diet was provided. Water was available ad libitum. Environmental controls for the animal room were set to maintain a temperature of 22° C. to 25° C., humidity of 40-70% RH, and a 12-hour light/12-hour dark cycle. Normal healthy animals certified by the attending veterinarian were selected and acclimatized for minimum three days prior to initiation of study.
(§6) To evaluate pharmacokinetic properties of intravenous delivery, male Sprague Dawley rats were administered 2.00 mg compound/kg animal weight through the tail vein. The concentration of the compound in the plasma of the animals was evaluated at 0.083, 0.25, 0.5, 1, 2, 4, 8, 12 and 24 hr by taking blood samples from the cannulated jugular vein. For the C5Bl/6J mice, blood samples were collected through a capillary, guided in retro-orbital plexus.
[…] The concentration of compound in the plasma of the animals was evaluated at 0.25, 0.5, 1, 2, 4, 6, 8, 12 and 24 hr by taking blood samples from the cannulated jugular vein (rats) or through a capillary, guided in retro-orbital plexus (mice).

[4] = In vivo pharmacokinetic properties in rats (IV and PO); parameters: species or system male Sprague Dawley rats
Experimental: as §4, §5
Surgical Procedure for Jugular Vein Cannulation of Rats: Rats were anaesthetized with a single dose of ketamine 50 mg/kg i.p.+xylazine 6 mg/kg i.p. The right jugular vein was exposed, a loose ligature was placed caudally, and the cranial end of vein was ligated. A small incision was made between the ligatures into which the catheter (polyethylene 50 tubing of internal diameter 0.58 mm and outer diameter 0.96 mm) was inserted. The catheter was secured in place by tying the loose ligature around the catheterized vessel. A small incision was made in the scapular region to serve as the exit site of the catheter. The catheter was subcutaneously tunneled and exteriorized through scapular incision. A stay suture was placed in the scapular area. Patency was tested, and catheter was filled with a locking solution (heparinized saline) and sealed with a stainless steel plug. The incision was then sutured with sterile suturing material. Anti-septic solution was applied to the sutured site and animal was placed back in the home cage.
as §6
To evaluate pharmacokinetic properties of oral delivery, rats (male Sprague Dawley rats) or mice (C5Bl/6J) were administered 10 mg compound/kg animal weight by mouth. The concentration of compound in the plasma of the animals was evaluated at 0.25, 0.5, 1, 2, 4, 6, 8, 12 and 24 hr by taking blood samples from the cannulated jugular vein (rats) or through a capillary, guided in retro-orbital plexus (mice).

[5] = test system: liver gene expression (ACACA, ACLY, FASN, LSS, PNPLA3); experiment: Liver gene expression in mice after oral administration; assay type: in vivo; details: 30 mpk, vs vehicle
Experimental: as §1, §2, §3
RNA Processing and Gene Expression Analysis: Liver Tissue RNA was harvested with the RNEasy kit and 20-100 ng used to synthesize cDNA with random primers following the manufacturer's protocol. Quantitative PCR was performed on 1 pg to 100 ng cDNA for the following genes: ACACA, ACLY, FASN, LSS, PNPLA3. Gene expression levels were determined using ΔΔCT method comparing treated to vehicle treated samples as a baseline, and fold change calculated. The average value for all 5 genes above was averaged and termed to Total Fold Change The results from this evaluation are presented in Table 8.

Compound: COc1ncc(-c2ccnc(C(C)(C)C)c2)cc1-c1ccc(C(=O)N2CCC(O)CC2)cc1Cl [Compound 10, (4-(2′-(tert-butyl)-6-methoxy-[3,4′-bipyridin]-5-yl)-3-chlorophenyl)(4-hydroxypiperidin-1-yl)methanone]
IC50 [1]: ≤ 3000 nM

Compound: CC(C)NC(=O)Nc1ccc(-c2cncc(-c3ccnc(C(C)(C)C)c3)c2)c(Cl)c1 [Compound 11, 1-(4-(2′-(tert-butyl)-[3,4′-bipyridin]-5-yl)-3-chlorophenyl)-3-isopropylurea]
IC50 [1]: ≤ 1000 nM

Compound: O=C(c1ccc(-c2cncc(-c3ccnc(C4OCCO4)c3)c2)c(Cl)c1)N1CCC(O)CC1 [Compound 12, (4-(2′-(1,3-dioxolan-2-yl)-[3,4′-bipyridin]-5-yl)-3-chlorophenyl)(4-hydroxypiperidin-1-yl)methanone]
IC50 [1]: ≤ 1000 nM

Compound: CC(C)OC(=O)Nc1ccc(-c2cncc(-c3ccnc(C(C)(C)C)c3)c2)c(Cl)c1 [Compound 16, isopropyl (4-(2′-(tert-butyl)-[3,4′-bipyridin]-5-yl)-3-chlorophenyl)carbamate]
IC50 [1]: ≤ 500 nM

Compound: CC(C)OC(=O)Nc1ccc(-c2cncc(-c3ccnc(C4OCCO4)c3)c2)c(Cl)c1 [Compound 20, Isopropyl (4-(2′-(1,3-dioxolan-2-yl)-[3,4′-bipyridin]-5-yl)-3-chlorophenyl)carbamate]
IC50 [1]: ≤ 500 nM

Compound: CC(C)(C)c1cc(-c2cncc(-c3c(Cl)cc(C(=O)N4CCC(O)CC4)cc3Cl)c2)ccn1 [Z-826]
Liver ng/mg (6 h) ([2]; 6 h): >1000 ng/mg
Plasma ng/mL (6 h) ([2]; 6 h): >1000 ng/mL
Liver ng/mg 24 h ([2]; 24 h): >1000 ng/mg
Plasma ng/mL (24 h) ([2]; 24 h): 100 to 1000 ng/mL
% F (Bioavailability of oral delivery) [3]: 82%
Intravenous Delivery (IV) AUC0-last ([3]; iv, 2 mg/kg): 3930 ng·h/mL
Intravenous Delivery (IV) CL ([3]; iv, 2 mg/kg): 8.45 mL/min/kg
Intravenous Delivery (IV) T1/2 ([3]; iv, 2 mg/kg): 3.24 h
Intravenous Delivery (IV) Vd ([3]; iv, 2 mg/kg): 2.37 L/kg
Oral Administration (PO) AUC0-last ([3]; po, 10 mg/kg): 15000 ng·h/mL
Oral Administration (PO) T1/2 ([3]; po, 10 mg/kg): 6.2 h
Oral Administration (PO) Tmax ([3]; po, 10 mg/kg): 0.25 h
Intravenous Delivery (IV) CL ([4]; IV, 2 mg/kg): 10.7 mL/min/kg
Intravenous Delivery (IV) T1/2 ([4]; IV, 2 mg/kg): 3.19 h
Intravenous Delivery (IV) Vd ([4]; IV, 2 mg/kg): 2.97 L/kg
% F (Bioavailability of oral delivery) ([4]; PO 10 mg/kg vs IV 2 mg/kg): 35%
Oral Administration (PO) AUC0-last ([4]; PO, 10 mg/kg): 5387
Oral Administration (PO) T1/2 ([4]; PO, 10 mg/kg): 3.05 h
Oral Administration (PO) Tmax ([4]; PO, 10 mg/kg): 1 h
Total Gene FC Time (6 h) ([5]; 6 h): + (>0.751 = +)
Total Gene FC Time (24 h) ([5]; 24 h): ++ (0.51-0.7509 = ++)

More lines, now with the values ahead:

IC50 [1]: ≤ 500 nM
Compound: CC(C)(C)OC(=O)NC1CCCN(C(=O)c2ccc(-c3cncc(-c4ccnc(C(C)(C)C)c4)c3)c(Cl)c2)C1 (stereo not drawn) [Compound 13, tert-butyl (1-(4-(2′-(tert-butyl)-[3,4′-bipyridin]-5-yl)-3-chlorobenzoyl)piperidin-3-yl)carbamate]

IC50 [1]: ≤ 100 nM
Compound: CC(C)(C)c1cc(-c2cncc(-c3ccc(C(=O)N4CCCC(O)C4)cc3Cl)c2)ccn1 (stereo not drawn) [Compound 14, (4-(2′-(tert-butyl)-[3,4′-bipyridin]-5-yl)-3-chlorophenyl)(3-hydroxypiperidin-1-yl)methanone]

IC50 [1]: ≤ 100 nM
Compound: COC1CCCN(C(=O)c2ccc(-c3cncc(-c4ccnc(C(C)(C)C)c4)c3)c(Cl)c2)C1 (stereo not drawn) [Compound 15, (4-(2′-(tert-butyl)-[3,4′-bipyridin]-5-yl)-3-chlorophenyl)(3-methoxypiperidin-1-yl)methanone]

IC50 [1]: ≤ 500 nM
Compound: CC1(O)CCCN(C(=O)c2ccc(-c3cncc(-c4ccnc(C(C)(C)C)c4)c3)c(Cl)c2)C1 (stereo not drawn) [Compound 22, (4-(2′-(tert-butyl)-[3,4′-bipyridin]-5-yl)-3-chlorophenyl)(3-hydroxy-3-methylpiperidin-1-yl)methanone]
